In paper PMC5085761 (International Journal of Molecular Sciences, 2016):

Biological target: T1, OAT1 (Homo sapiens, UniProt Q4U2R8)
T1 construct: host or cells: Flp-in-293
T1 sequence (Q4U2R8 1-563): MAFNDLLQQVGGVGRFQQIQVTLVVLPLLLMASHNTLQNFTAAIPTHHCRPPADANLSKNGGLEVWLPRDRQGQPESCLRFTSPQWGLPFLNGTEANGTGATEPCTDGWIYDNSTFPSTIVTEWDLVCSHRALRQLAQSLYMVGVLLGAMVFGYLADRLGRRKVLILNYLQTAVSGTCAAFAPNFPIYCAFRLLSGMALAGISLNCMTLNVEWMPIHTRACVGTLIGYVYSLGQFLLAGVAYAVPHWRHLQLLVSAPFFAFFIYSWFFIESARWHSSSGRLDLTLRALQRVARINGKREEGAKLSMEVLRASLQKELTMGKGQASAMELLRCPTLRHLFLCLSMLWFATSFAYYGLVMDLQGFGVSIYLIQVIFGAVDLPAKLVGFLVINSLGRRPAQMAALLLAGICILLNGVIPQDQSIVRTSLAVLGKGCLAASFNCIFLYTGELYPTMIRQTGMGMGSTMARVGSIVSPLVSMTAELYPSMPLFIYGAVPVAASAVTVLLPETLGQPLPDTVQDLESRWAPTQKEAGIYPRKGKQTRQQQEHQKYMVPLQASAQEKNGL
Assay: [14C]fluciclovine uptake by OAT1-expressing cells
Format: in vitro ADME
Settings: OAT1 cells vs mock cells
Description: For the SLC transporter experiments, Mock Flp-in-293 cells (Flp/mock), OAT1-expressing Flp-in-293 cells (Flp/OAT1), mock HEK293 cells (HEK/mock), and OATP1B3-expressing HEK293 cells (HEK/OATP1B3) were obtained from Kanazawa University (Ishikawa, Japan). Briefly, Flp-in-293 and HEK293 cells were transfected with the appropriate plasmid DNA and selected using antibiotics (hygromycin or G-418). All cell lines were cultured in DMEM (Life Technologies Japan) supplemented with 10% (v/v) fetal bovine serum (American Type Culture Collection) and antibiotics (100 U/mL penicillin and 100 μg/mL streptomycin (Life Technologies Japan) for mock cells, 0.2 mg/mL hygromycin for Flp/OAT1 cells, and 1.2 mg/mL G-418 (Roche Diagnostics K.K., Tokyo, Japan) for HEK/OATP1B3 cells) at 37 °C under an atmosphere containing 5% CO2. […]
The experiments were performed as described previously, with minor modifications. […] The cells were lysed in 0.3 mL of 0.1N NaOH at room temperature, after which the radioactivity of each aliquot was measured as described above. The protein concentration of the cell lysate was determined with a VersaMax microplate reader (Molecular Devices Japan K.K., Osaka, Japan) or SpectraMax i3x (Molecular Devices Japan K.K.; only for OATP1B1) using a BCA Protein Assay Kit (Thermo Fisher Scientific, Kanagawa, Japan). Tracer uptake was expressed as pmol/mg protein. […]

## N[14C]1(C(=O)O)CC(F)C1 (stereo not drawn) [[^14C]fluciclovine, trans-1-amino-3-fluoro[1-^14C]cyclobutanecarboxylic acid]
  drug transporter-mediated uptake: negligible
